Experimental findings from PubChem BioAssay (NCI) are described below.

Structures are written as SMILES.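 Results reflect a 48-hour exposure of cells in 96-well plates to compound at five concentrations. Definition used: TGI = concentration required for complete inhibition of growth.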

Holding throughout (test): NCI anticancer screen, dose series, 48 h
The subject of experiment [1] is OVCAR-5 ovarian.
The subject of experiment [2] is TK-10 renal.
Experiment [3] has as its system 786-0 renal.
Experiment [4] concerns A498 renal.
In experiment [5] the test system is SK-OV-3 ovarian.
Experiment [6] relates to OVCAR-8 ovarian.
For experiment [7], the system named is COLO 205 colon.
The subject of experiment [8] is CAKI-1 renal.
Experiment [9] concerns MDA-MB-231 breast.
For experiment [10], the system named is NCI/ADR-RES ovarian.

In the case of `Cn1c2cc(O)cc(O)c2c(=O)c2c([N+](=O)[O-])cccc21`, the TGI in experiment [1], in experiment [2], in experiment [3], in experiment [4], in experiment [5] and in experiment [6] was above 100 µM each time. Further, the TGI in experiment [7] and in experiment [8] was above 100 µM throughout.
As for `COC(=O)[C@@]12OC[C@]34C([C@@H](O)C1O)[C@@]1(C)CC(=O)C(OC(=O)/C=C(/c5ccccc5)C(F)(F)F)=C(C)C1C[C@H]3OC(=O)[C@H](O)[C@H]42` (some centres undefined), the TGI in [1] was above 50 µM; in [2] it was above 50 µM; in experiment [3], above 50 µM; in [4] it was 2.26 µM; in experiment [5], above 50 µM; in experiment [6] it was above 50 µM. For the same compound, the TGI in [7] was 30.2 µM; in [8] it was above 50 µM.
Consider `CN(CCCNC(=O)c1nn(-c2ccc(Cl)cc2Cl)c2c1ccc1ccccc12)CCCNC(=O)c1nn(-c2ccc(Cl)cc2Cl)c2c1ccc1ccccc12`, for which the TGI in experiment [1] was 3.57 µM; in experiment [9], 3.23 µM; in experiment [2], 3.41 µM; in experiment [3], 2.95 µM; in experiment [4], 2.77 µM; in experiment [5], 3.49 µM. The TGI is 3.26 µM in experiment [10], 3.71 µM in [7] and 3.05 µM in experiment [8].
`O=c1cc(-c2ccccc2)oc2cc(OCCSCCCCCCCCCCSCCOc3ccc4c(=O)cc(-c5ccccc5)oc4c3)ccc12`: the TGI in experiment [2], in experiment [3], in experiment [5], in [6], in experiment [7] and in [8] was above 100 µM throughout.
As for `COC(=O)c1ccc(Cc2ccc(C(=O)OC)o2)o1`, the TGI in [1], in experiment [2], in experiment [3], in experiment [5], in [6] and in [7] was above 378 µM in each case. The TGI in experiment [8] was above 378 µM.
Consider `O=c1cc(-c2ccc(Cl)cc2)oc2cc(OCCCOc3ccc4c(=O)cc(-c5ccc(Cl)cc5)oc4c3)ccc12`, for which the TGI in experiment [1], in experiment [2], in [3], in [5], in experiment [6] and in experiment [7] was above 100 µM throughout. In experiment [8], this compound returned a TGI above 100 µM.
In the case of `COc1cc2c(cc1OC)C(=O)C(C1=C(SC(=N)N)C(=O)c3cc(OC)c(OC)cc31)C2` (centres undefined), the TGI in [1], in experiment [3], in experiment [5], in experiment [6], in experiment [7] and in experiment [8] was above 100 µM throughout.
For the compound `COc1cc(/C=C2/C(=O)N(C(=O)c3ccc(Cl)cc3)N=C2C)cc(OC)c1OC`, the TGI in experiment [1], in experiment [2], in [3], in [4], in [5] and in [6] was above 100 µM in each case. Also, the TGI in experiment [7] and in experiment [8] was above 100 µM in each case.
As for `C/C=C/C(=O)N1C(=O)OC[C@@H]1c1ccccc1`, the TGI was 31.7 µM in experiment [1]; 39.8 µM in experiment [9]; 32.2 µM in experiment [2]; 35 µM in experiment [3]; 45.7 µM in [4]; 33.3 µM in [5]. The TGI came to 38.5 µM in experiment [6], 44.4 µM in experiment [10], 39.1 µM in experiment [7] and 32.6 µM in experiment [8].
Consider `Cc1ccc(O)c(C(=O)CCCC(=O)c2cc(C)ccc2O)c1`, for which the TGI in [1], in [2], in experiment [3], in experiment [4], in [5] and in experiment [6] was above 100 µM throughout. The TGI in experiment [7] and in [8] was above 100 µM each time.
As for `Cc1c2c(n(CCN(C)C)c1C)NN=C(C#N)S2(=O)=O`, the TGI in [1], in experiment [9], in experiment [2], in experiment [3], in experiment [5] and in experiment [6] was above 100 µM in each case. Further, the TGI in [10] and in [7] was above 100 µM in each case.
Consider `O=C1/C(=C/c2ccc(Cl)cc2)N=C(c2ccccc2)N1c1ccc(S(=O)(=O)Nc2nccs2)cc1`, for which the TGI in [1] was above 100 µM; in [9], 55.9 µM; in experiment [2], above 100 µM; in experiment [3] it was above 100 µM; in experiment [4], above 100 µM; in experiment [5], above 100 µM. The TGI was above 100 µM in [10], 40.7 µM in [7] and above 100 µM in experiment [8].
As to `COc1c(O)c2c(=O)cc(OC)c3c4c(OC)cc(=O)c5c(O)c(OC)c6c(c(c1C(C(C)=O)C6C(C)O)c23)c54` (centres undefined), the TGI in experiment [1] came out at 1.28 µM; in experiment [9], 1.88 µM; in experiment [2] it was 3.65 µM; in experiment [3] it was 3.81 µM; in experiment [4], 28.3 µM; in [5] it was 2.49 µM. The TGI came to 0.71 µM in [6] and 1.58 µM in [10].
For the compound `COc1ccc(/C=C2\N=C(NN)N=C2Cl)cc1`, the TGI in [1], in experiment [9], in [2], in experiment [3], in experiment [4] and in [5] was above 100 µM throughout. Besides, the TGI in experiment [6], in experiment [10], in [7] and in experiment [8] was above 100 µM each time.
As for `CC(=O)OC1CC[C@]2(C)C3CC[C@@]4(C)C(CCC4[C@H](C)CCCC(C)C)[C@@H]3CCC2(Br)C1` (some centres undefined), the TGI in [1] is above 50 µM; in experiment [9], 38 µM; in experiment [2] it was 26.5 µM; in [3], 17.5 µM; in experiment [4], 18 µM; in [5], above 50 µM. The TGI in [6] was 26.5 µM; in experiment [10] it was above 50 µM; in experiment [7] it was 20.9 µM; in experiment [8], 25 µM.
`COc1cc([C@@H]2c3cc4c(cc3[C@@H](NC(=O)c3cccc(F)c3)C3COC(=O)[C@@H]32)OCO4)cc(OC)c1O` (some centres undefined): the TGI in experiment [1] was 33 µM; in experiment [2], 17.1 µM; in [3], 2.26 µM; in experiment [4] it was 4.91 µM; in experiment [5] it was 5.78 µM; in [6] it was 16.1 µM. Moreover, the TGI in experiment [7] is 22.1 µM; in experiment [8], 22.5 µM.
As for `CC(=O)NNc1nc(C)c(C(/C=C/c2ccc(Cl)cc2)=N/NC(=O)C[N+](C)(C)C)s1`, the TGI in [1], in experiment [2], in experiment [3], in experiment [4], in [5] and in [7] was above 100 µM each time. In [8], the TGI was above 100 µM.
For `[N-]=[N+]=NC(CBr)c1cn([C@H]2C[C@H](O)[C@@H](CO)O2)c(=O)[nH]c1=O` (some centres undefined), the TGI in [1], in [2], in experiment [3], in experiment [5], in [6] and in experiment [7] was above 100 µM each time. The compound further returned a TGI in [8] above 100 µM.
With `CC(C)C(/C=C/c1ccc(Br)cc1)=N\NC(N)=O`, the TGI in [1], in experiment [2], in [3], in experiment [5], in experiment [6] and in [7] was above 100 µM in each case. The compound further had a TGI in experiment [8] above 100 µM.
On to `Nc1nc(Cl)c2nnn(CC3CCC(CO)C3)c2n1` (centres undefined), for which the TGI in [1], in experiment [9], in experiment [2], in experiment [3], in [4] and in experiment [5] was above 100 µM in each case. In addition, the TGI in experiment [10], in experiment [7] and in experiment [8] was above 100 µM in each case.
For the compound `CSc1nc2[nH]c(=O)c(C)nc2c(=O)[nH]1`, the TGI in experiment [1], in experiment [2], in experiment [3], in experiment [4], in [5] and in experiment [6] was above 100 µM each time. Besides, the TGI in experiment [7] and in experiment [8] was above 100 µM each time.
As to `O=c1[nH]n(Cc2ccccn2)c2ccc([N+](=O)[O-])cc12`, the TGI in experiment [1], in experiment [9], in [2], in [3], in [4] and in [6] was above 100 µM in each case. Further, the TGI in experiment [10], in experiment [7] and in [8] was above 100 µM throughout.
For `CCCCS(=O)(=O)Nc1ccc(Nc2c3ccccc3nc3ccccc23)c(OC)c1`, the TGI in experiment [1] was determined as 26.6 µM; in [4], 9.85 µM; in [5], 16.9 µM; in experiment [6], 13.3 µM; in experiment [10], 22 µM; in experiment [7], 20.2 µM. For the same compound, in [8], the TGI worked out at 10.1 µM.
